Reference: patent publication US9670244B2, “Oxysterol compounds and the hedgehog pathway” (THE REGENTS OF THE UNIVERSITY OF CALIFORNIA, priority 2006, dated 2017)
Several values for one entry are separate records, joined by “and”; a condition that tells them apart may be missing. Equal entries are not always repeated. Entries after “also recorded” stand apart in the source; their conditions may differ. Each block holds one molecule with its values, some of them ahead of it.

How the values were obtained:
[1] = tested on: Gli-dependent luciferase reporter; assay: Gli-dependent luciferase reporter (Gli-Luc) assay in M2 cells; assay type: cell-based, mouse; conditions: for Induction of Gli reporter activity: ShhN 200 ng/ml, oxysterols 5 μM, TO 1 or 5 μM, 48 hours; for Gli reporter activity (synthetic oxysterols, FIG. 10): M2-10B4 Marrow Stromal Cells
Description: (§1) Cells were plated into 24-well plates and transfected the next day with Gli-dependent firefly luciferase and Renilla luciferase vectors and where indicated, Smo or Ptch expression vectors. […] Cells were treated for 48 hours prior to assessing luciferase activity using the Dual Luciferase Reporter Assay System (Promega, Madison, Wis.) according to manufacturer's instructions. Experiments were performed in triplicate and error bars indicate one standard deviation.
To further examine Hh pathway activation by oxysterols, a reporter assay using a luciferase reporter driven by a multimerized Gli-responsive element (5′-[…]-3′) (SEQ ID NO:4) was used.

Gli-1 and Ptch mRNA = assay: Q-RT-PCR of hedgehog pathway genes in M2 cells; assay type: cell-based, mouse; conditions: for Inhibition of oxysterol-induced Gli-1 and Ptch mRNA expression: M2 cells, SS 24 hours, pretreatment or co-treatment with agent
Description: Q-RT-PCR was performed using reverse-transcribed RNA isolated from M2 cells using phenol/chloroform method. PCR reactions were performed using iQ SYBR Green Supermix and an iCycler RT-PCR Detection System (BIO-RAD Laboratories, Hercules, Calif.). Primer sequences for Gli-1, Gli-2, Gli-3, Shh and Ihh were kindly provided by Dr. Fanxin Long (Washington University, St. Louis, Mo.). Ptch and Smo primer sequences are available upon request. Q-RT-PCR data were normalized to cyclophilin expression and relative expression levels were calculated using the […] method (Livak et al. (2001) Methods 25, 402-408).

pMARCKS, pPKA, pCREB = assay: Western blotting of phosphorylated proteins in M2 cell lysates; assay type: cell-based, mouse; conditions: SS 5 μM 10 min to 48 hours; PMA 30 min
Description: After treatments, cells were lysed in lysis buffer, protein concentrations determined using the Bio-Rad protein assay (Hercules, Calif.), and SDS-PAGE was performed, probing for native and phosphorylated proteins.
We previously reported that oxysterol-induced osteoblastic differentiation of cells is mediated via protein kinase C (PKC)- and protein kinase A (PKA)-dependent mechanisms. The role of these signaling pathways in regulating the different markers of osteoblastic differentiation appears to be both specific and overlapping. To begin elucidating the possible role of PKC and PKA in mediating oxysterol-induced Hh pathway activation, we examined the effect of PKC and PKA inhibitors on markers of Hh pathway activation. […] Similarly, oxysterol-induced Gli-1 and Ptch expression was inhibited in cells whose PKC stores were depleted following overnight pretreatment with 1 μM PMA (FIG. 6c,d). We next examined whether oxysterols induced PKC activation by assessing the levels of phosphorylated MARCKS (pMARCKS), a PKC substrate, by Western blotting.
To examine the possible role of PKA in oxysterol-induced Hh pathway activation, the effect of PKA inhibitor, H-89, previously found to inhibit the induction of some, but not all, markers of osteoblastic differentiation, on oxysterol-induced Gli-1 and Ptch mRNA expression was assessed by Q-RT-PCR.

rat femur periosteum = assay: Rat periosteal femur model, bone formation scoring; assay type: in vivo; design: key to Bone formation Score, individual animal / Bone formation Score (radiograph scoring), individual animal: 4: Marked amount and contiguous on eriosteum; 3: Moderate amount and contiguous on eriosteum; 2: Small amount and contiguous on periosteum; 1: Small amount and small segments on periosteum; 0: None; conditions: for Bone formation score, Average / Bone formation score (radiograph scoring), Average: n=6
Description: Male SD rats were treated for two weeks with Oxy13 (or a control vehicle). The Oxy13 was delivered by an Alzet pump to the perioseum, in three doses or by daily injections. The treatment regimens were: two weeks treatment, n=6 per group, vehicle and three Oxy 13 doses continuous and two doses daily injection; and four weeks treatment, vehicle and two Oxy 13 doses, n=6/group. The bone in-growth endpoints that were evaluated were microradiography, histomorphometry and blinded, randomized visual scoring.

[2] = tested on: M2-10B4 marrow stromal cells; assay: 45Ca incorporation (mineralization) assay in M2-10B4 marrow stromal cells; assay type: cell-based, mouse
Description: (§2) The cells used are the pluripotent M2 cells (M2-10B4) that we previously characterized for their ability to become osteoblastiic and adipocyte cells. […] These cells are derived from bone marrow, are easy to maintain and last for many passages in vitro. […] Among the markers of osteogenic differentiation that were assayed were alkaline phosphatase activity, osteocalcin mRNA expression and mineral formation in cultures of marrow stromal cells.
We tested the effect of oxysterols on mineralization in M2-10B4 marrow stromal cells. Cells were treated with the oxysterols for 14 days after which the amount of mineral formed in the cultures was quantified using a radioactive ^45Ca incorporation assay.

[3] = tested on: M2-10B4 marrow stromal cells; assay: Alkaline phosphatase activity assay in M2-10B4 marrow stromal cells; assay type: cell-based, mouse
Description: as §2
We tested the effect of the synthetic oxysterols, oxy-1 through oxy-15, on alkaline phosphatase activity in M2-10B4 marrow stromal cells. Cells were treated with the oxysterols for 4 days after which they were collected and analyzed by colorimetric assay for alkaline phosphatase activity.

[4] = tested on: Runx2 DNA binding activity
Description: Oligonucleotides were annealed to their complementary sequences by boiling and cooling. The probes were end-labeled with γ^32P-ATP using polynucleotide kinase and column purified. […] Nuclear extracts (10 μg) were incubated in binding buffer (10 mM Tris pH 7.5, 100 mM NaCl, 1 mM DTT, 1 mM EDTA, 4% glycerol), 1 μg poly(dIdC) and 0.2 ng of labeled probe for 20 minutes at room temperature, and complexes were resolved on a cooled, 6% acrylamide 1×TBE gel. Subsequently, gels were dried and exposed to film.

[5] = tested on: Gli-dependent luciferase reporter; conditions: 4 μM pre-treatment
Description: as §1

osteocalcin (OCN) mRNA = conditions: 4 μM pre-treatment, 5 μM SS 8 days
Description: (§3) Colorimetric alkaline phosphatase activity assay on whole cell extracts and Northern blotting for OCN and 18S rRNA were performed by conventional procedures. Gene expression was quantified using a Storm840 phosphorimager and ImageQuant software (Amersham, Piscataway, N.J.).

Smo−/− MEFs = assay: Alkaline phosphatase assay in Smo-/- mouse embryonic fibroblasts; assay type: cell-based; conditions: two days; BMP-7 50 ng/ml
Description: as §3

[6] = Mus musculus, M210B4, 336 h, read-out: 45Ca Incorporation (fold induction over control untreated cells)
[7] = Mus musculus, M210B4, 96 h, read-out: Fold Induction over Control Untreated Cells (alkaline phosphatase activity)

Molecule: CC(C)CCC[C@@H](C)[C@H]1CC[C@H]2[C@@H]3C(=O)C=C4C[C@@H](O)CC[C@]4(C)[C@H]3CC[C@]12C [7-ketocholesterol, reference compound]
Induction of Gli reporter activity [1]: not observed

Molecule: CCCCCCCCCCCCCC(=O)O[C@@H]1[C@@H](C)[C@@]2(O)[C@@H](C=C(CO)C[C@]3(O)C(=O)C(C)=C[C@@H]23)[C@@H]2C(C)(C)[C@]12OC(C)=O [PMA, Phorbol 12-Myristate 13-Acetate]
Inhibition of oxysterol-induced Gli-1 and Ptch mRNA expression (Gli-1 and Ptch mRNA): inhibited
Phosphorylated MARCKS (pMARCKS) levels (pMARCKS, pPKA, pCREB): clearly induced MARCKS phosphorylation

Molecule: C=C(C)CCC[C@](C)(O)[C@H]1CC[C@H]2[C@@H]3CC=C4C[C@@H](O)CC[C@]4(C)[C@H]3CC[C@@]21C [Oxy13, (3S,8S,9S,10R,13S,14S,17S)-2,3,4,7,8,9,10,11,12,13,14,15,16,17-tetradecahydro-17-((S)-2-hydroxy-6-methylhept-6-en-2-yl)-10,13-dimethyl-1H-cyclopenta[a]phenanthren-3-ol]
Bone formation Score, individual animal (rat femur periosteum; Pump 2 wk 0.167 mg/ml): 3
Bone formation score, Average (rat femur periosteum; Pump 2 wk 0.167 mg/ml): 3.00
Bone formation Score, individual animal (rat femur periosteum; Pump 2 wk 1.67 mg/ml): 1 and 4 (3×) and 3 and 2
Bone formation score, Average (rat femur periosteum; Pump 2 wk 1.67 mg/ml): 3.00
Bone formation Score (radiograph scoring), individual animal (rat femur periosteum; Pump 4 wk 0.167 mg/ml): 0 and 2 (3×) and 3 (2×)
Bone formation score (radiograph scoring), Average (rat femur periosteum; Pump 4 wk 0.167 mg/ml): 2.00
Bone formation Score (radiograph scoring), individual animal (rat femur periosteum; Pump 4 wk 1.67 mg/ml): 2 (2×) and 3 and 1 (2×) and 0
Bone formation score (radiograph scoring), Average (rat femur periosteum; Pump 4 wk 1.67 mg/ml): 1.50
fold induction at 5 µM [2, 6]: 5
fold induction at 10 µM [2, 6]: 34
fold induction at 15 µM [2, 6]: 38
Gli reporter activity (synthetic oxysterols, FIG. 10) [1]: stimulate the Gli1 reporter; also recorded: stimulation of Gli reporter activity
fold induction at 2.5 µM [3, 7]: 200
fold induction at 5 µM [3, 7]: 334

Molecule: CC(C)CCC[C@](C)(O)[C@H]1CC[C@H]2[C@@H]3CC=C4C[C@@H](O)CC[C@]4(C)[C@H]3CC[C@@]21C [Oxy 20S, 20(S)-hydroxycholesterol, reference compound]
fold induction at 7.5 µM [2, 6]: 4

Molecule: O=S(=O)(NCCNC/C=C/c1ccc(Br)cc1)c1cccc2cnccc12 [Oxy H-89, H-89]
Inhibition of oxysterol-induced Gli-1 and Ptch mRNA expression (Gli-1 and Ptch mRNA): did not inhibit

Molecule: Cc1cccc(C[C@](C)(O)C2CCC3C4CC=C5C[C@@H](O)CC[C@]5(C)C4CC[C@@]32C)c1 (some centres unmarked) [Oxy11]
Gli reporter activity (synthetic oxysterols, FIG. 10) [1]: stimulate the Gli1 reporter; also recorded: stimulation of Gli reporter activity
Fold Induction over Control Untreated Cells (alkaline phosphatase activity) ([3]; 2.5 μM, 4 days): 6 fold

Molecule: CC(C)CCCC[C@](C)(O)[C@H]1CC[C@H]2[C@@H]3CC=C4C[C@@H](O)CC[C@]4(C)[C@H]3CC[C@@]21C [Oxy12, (3S,8S,9S,10R,13S,14S,17S)-2,3,4,7,8,9,10,11,12,13,14,15,16,17-tetradecahydro-17-((S)-2-hydroxy-7-methyloctan-2-yl)-10,13-dimethyl-1H-cyclopenta[a]phenanthren-3-ol]
fold induction at 5 µM [2, 6]: 2
fold induction at 10 µM [2, 6]: 4
fold induction at 15 µM [2, 6]: 7
Gli reporter activity (synthetic oxysterols, FIG. 10) [1]: stimulate the Gli1 reporter; also recorded: stimulation of Gli reporter activity
fold induction at 5 µM [3, 7]: 22
fold induction at 10 µM [3, 7]: 80

Molecule: CC(C)CCC[C@@H](C)[C@H]1CC[C@H]2[C@@H]3[C@H](O)C=C4C[C@@H](O)CC[C@]4(C)[C@H]3CC[C@]12C [7-α-hydroxycholesterol, reference compound]
Induction of Gli reporter activity [1]: not observed

Molecule: O=S(=O)(c1ccccc1)N(CC(F)(F)F)c1ccc(C(O)(C(F)(F)F)C(F)(F)F)cc1 [TO-901317, reference compound]
Induction of Gli reporter activity [1]: no activation

Molecule: CC(=O)c1c(O)c(C)c(O)c(Cc2c(O)c3c(c(C(=O)/C=C/c4ccccc4)c2O)OC(C)(C)C=C3)c1O [rottlerin]
Inhibition of oxysterol-induced Gli-1 and Ptch mRNA expression (Gli-1 and Ptch mRNA): dose-dependently inhibited
Effect of agent alone on Gli-1 and Ptch gene expression (Gli-1 and Ptch mRNA; all concentrations tested, without SS): no significant effect on gene expression

Molecule: CC1=C2C[C@H]3[C@@H](CC=C4C[C@@H](O)CC[C@@]43C)[C@@H]2CC[C@]12O[C@@H]1C[C@H](C)CN[C@H]1[C@H]2C [cyclopamine, reference compound]
Inhibition of oxysterol-stimulated Runx2 DNA binding activity [4]: completely inhibited
Inhibition of oxysterol-increased mineralization ([2]; 4 μM pre-treatment, 5 μM SS 14 days): inhibited
Inhibition of oxysterol-induced Gli-luc activity in C3H10T½ cells [5]: inhibited
Inhibition of oxysterol- or ShhN-induced Gli-luc activity ([1]; pre-treatment 2 hours, 4 μM): inhibited
Inhibition of oxysterol-induced OCN expression (osteocalcin (OCN) mRNA): inhibited
Inhibition of SS-induced ALP activity ([3]; M2 cells, 5 μM SS, 3 days): significantly inhibited

ALP activity / osteoblastic differentiation in Smo−/− MEFs (Smo−/− MEFs): did induce ALP activity
B1: BMB-7: bone morphogenetic protein 7 (protein, UniProt P18075 293-431, looked up)
Bone morphogenetic protein 7: STGSKQRSQNRSKTPKNQEALRMANVAENSSSDQRQACKKHELYVSFRDLGWQDWIIAPEGYAAYYCEGECAFPLNSYMNATNHAIVQTLVHFINPETVPKPCCAPTQLNAISVLYFDDSSNVILKKYRNMVVRACGCH
